Test [1] concerns Klebsiella pneumoniae 39645. The test is described as follows: in vivo antibacterial activity in mice infected with K. pneumoniae (PD50). On the set-up: species or system mouse (female) infected with Klebsiella pneumoniae. The note with it: Klebsiella pneumoniae, 39645, sc, 336 h, read-out: Protective Dose (PD50). As for the experimental part:
(§1) The in vivo antibacterial activity of the compounds of the invention was determined in female mice, 18-20 grams each, by the following procedure:
(§2) Aqueous solutions of the compounds to be tested were prepared by dissolving the free acid form in dilute sodium hydroxide and diluting the solution with distilled water to be desired volume.
(§3) Cultures of Escherichia coli Vogel prepared in brain heart infusion broth, cultures of Klebsiella pneumoniae 39645 grown in tryptose phosphate broth with 5% rabbit serum diluted in the same broth and cultures of Pseudomonas aeruginosa MGH-2 grown on brain heart infusion agar and suspended in physiological saline, were used to infect the mice as follows:
K. pneumoniae: mice were inoculated intramuscularly in the right hind leg with 0.2 ml of the bacterial test inoculum (2.05×10^4 cells/ml).
Mice infected with K. pneumoniae were medicated at the following times: seventeen hours and one hour preinfection, six hours postinfection and twice a day for the next three days. The test compound was administered by both subcutaneous (0.2 ml) and oral (0.5 ml) routes. Deaths were recorded daily for fourteen days.
(§4) Groups of ten animals each for four or five dose levels were thus treated and the number of survivors in each group recorded. The fifty percent protective dose values (PD50) were then calculated.

Test [2] concerns Klebsiella pneumoniae 39645. Briefly: in vitro antibacterial activity, serial dilution (MIC). The note with it: 18-20 hours static incubation, read-out: Minimal Inhibitory Concentration (MIC). The format is cell-based. As for the experimental part: (§5) The in vitro antibacterial activity of the compounds of the invention was determined by conventional serial dilution procedures. Bacterial cultures were grown in tryptose phosphate broth or brain heart infusion broth (containing heat-inactivated normal horse serum for tests with S. pyogenes) overnight at 37° C. and subsequently diluted in double strength broth to provide bacterial inocula of about 2×10^5 cells/ml. Aqueous solutions of the compounds of the invention were prepared by dissolving the free acid form in 0.5N sodium hydroxide. The solutions were diluted with sterile distilled water to 1000 mcg/ml of compound in terms of the free acid. Serial two-fold dilutions of the compound stock solutions were prepared in water and 0.5 ml of each dilution was transferred to sets of tubes, one set for each bacterial inoculum.

Test [3] deals with Proteus mirabilis MGH-1. Described as above. It counts as cell-based. The following applies: MGH1, 18-20 hours static incubation, read-out: Minimal Inhibitory Concentration (MIC). As for the experimental part: as §5
Test [4] has as its system Streptococcus pyogenes C203. Described as above. The format is cell-based. The note with it: 18-20 hours static incubation, read-out: Minimal Inhibitory Concentration (MIC). The procedure:
as §5

Test [5] concerns Staphylococcus aureus Smith. The description is as above. It counts as cell-based. The following applies: 18-20 hours static incubation, read-out: Minimal Inhibitory Concentration (MIC). The procedure: as §5
Test [6] has as its system Pseudomonas aeruginosa MGH-2. The description is as above. The format is cell-based. The following applies: MGH2, 18-20 hours static incubation, read-out: Minimal Inhibitory Concentration (MIC). The procedure:
as §5

Test [7] relates to Escherichia coli Vogel. The test is described as above. The format is cell-based. The following applies: 18-20 hours static incubation, read-out: Minimal Inhibitory Concentration (MIC). The procedure: as §5
The subject of test [8] is Proteus vulgaris 9920. The description is as above. It counts as cell-based. The note with it: 18-20 hours static incubation, read-out: Minimal Inhibitory Concentration (MIC). As for the experimental part:
as §5

Test [9] relates to Escherichia coli Vogel. Briefly: in vivo antibacterial activity in mice infected with E. coli (PD50). Set-up: species or system mouse (female) infected with Escherichia coli. The note with it: sc, 168 h, read-out: Protective Dose (PD50). As for the experimental part: as §1, §2, §3
Mice infected with E. coli were medicated once (0.5 ml) one-half hour post infection, the test compound being administered by either the subcutaneous (s.c.) or oral (p.o.) route. Deaths were recorded daily for seven days.
as §4

Test [10] concerns Pseudomonas aeruginosa MGH-2. Briefly: in vivo antibacterial activity in mice infected with P. aeruginosa (PD50). On the set-up: species or system mouse (female) infected with Pseudomonas aeruginosa. The following applies: MGH2, sc, 168 h, read-out: Protective Dose (PD50). As for the experimental part: as §1, §2, §3
Deaths were recorded daily for seven days.
as §4

Where [11] appears, read: mouse, K. pneumoniae, s.c., pre- and postinfection, 14 days.
Setting [12] is: mouse, E. coli, s.c., once one-half hour post infection, 7 days.

Values after ≈ are worked out from the molar mass of the structure shown. Where two headings read alike, the source gives them in different places.

With `CCCNn1cc(C(=O)O)c(=O)c2cc(F)c(N3CCN(C)CC3)cc21` [Example 6, 6-Fluoro-1,4-dihydro-7-(4-methyl-1-piperazinyl)-4-oxo-1-propylamino-3-quinolinecarboxylic acid], the ED50 is above 200 mg/kg in test [1] (setting [11]) and 32 mg/kg in test [9] (setting [12]). For the same compound, the MIC in test [2] turned out to be 2 µg/mL (≈ 5.52 µM); in test [3] it was 31.3 µg/mL (≈ 86.4 µM); in [4] it was 125 µg/mL (≈ 345 µM); in test [5], 15.6 µg/mL (≈ 43 µM); in test [6], 31.3 µg/mL (≈ 86.4 µM); in test [7], 2 µg/mL (≈ 5.52 µM). The MIC in [8] was 2 µg/mL (≈ 5.52 µM).

For `CNn1cc(C(=O)O)c(=O)c2cc(F)c(N3CCCN(C)CC3)cc21` [Example 20, 6-Fluoro-7-(hexahydro-4-methyl-1H-1,4-diazapin-1-yl)-1,4-dihydro-1-methylamino-4-oxo-3-quinolinecarboxylic acid], the ED50 in [1] (setting [11]) came out at 33 mg/kg; in test [9] (setting [12]), 3.6 mg/kg. Further, the MIC in test [2] was found to be 4 µg/mL (≈ 11.5 µM); in test [3], 2 µg/mL (≈ 5.74 µM); in [4], 32 µg/mL (≈ 91.9 µM); in test [5], 4 µg/mL (≈ 11.5 µM); in test [6], 4 µg/mL (≈ 11.5 µM); in test [7], 2 µg/mL (≈ 5.74 µM).

Regarding `CNn1cc(C(=O)O)c(=O)c2cc(F)c(N3CCC(O)C3)cc21` (stereo not shown) [Example 22, 6-Fluoro-1,4-dihydro-7-(3-hydroxy-1-pyrrolidinyl)-1-methylamino-4-oxo-3-quinolinecarboxylic acid], the ED50 came out at 118 mg/kg in test [1] (setting [11]) and 10.4 mg/kg in test [9] (setting [12]). Besides, the MIC in test [2] came to 4 µg/mL (≈ 12.4 µM); in test [3], 1 µg/mL (≈ 3.11 µM); in test [4], 16 µg/mL (≈ 49.8 µM); in [5], 1 µg/mL (≈ 3.11 µM); in test [6], 4 µg/mL (≈ 12.4 µM); in [7] it was 1 µg/mL (≈ 3.11 µM).

Consider `CNn1cc(C(=O)O)c(=O)c2cc(F)c(N3CCN(C(C)=O)CC3)cc21` [Example 14, 7-(4-Acetyl-1-piperazinyl)-6-fluoro-1,4-dihydro-1-methylamino-4-oxo-3-quinolinecarboxylic acid], for which the ED50 in test [1] (setting [11]) and in [9] (setting [12]) was 100 mg/kg throughout. Further, the MIC in test [3] came out at 15.6 µg/mL (≈ 43.1 µM); in test [4] it was 31.3 µg/mL (≈ 86.4 µM); in [6], 62.5 µg/mL (≈ 172 µM); in test [7], 15.6 µg/mL (≈ 43.1 µM); in test [8], 1.95 µg/mL (≈ 5.38 µM).

As for `CN1CCN(c2cc3c(cc2F)c(=O)c(C(=O)O)cn3N)CC1` [Example 3, 1-Amino-6-fluoro-1,4-dihydro-4-oxo-7-(4-methyl-1-piperazinyl)-3-quinolinecarboxylic acid], the ED50 stood at 30.5 mg/kg in test [1] (setting [11]) and 3.13 mg/kg in test [9] (setting [12]). Further, the MIC is 2 µg/mL (≈ 6.24 µM) in test [2]; 2 µg/mL (≈ 6.24 µM) in test [3]; 62.5 µg/mL (≈ 195 µM) in test [4]; 15.6 µg/mL (≈ 48.7 µM) in [6]; 2 µg/mL (≈ 6.24 µM) in test [7]; 1 µg/mL (≈ 3.12 µM) in test [8].

As for `CNn1cc(C(=O)O)c(=O)c2cc(F)c(N3CCNCC3)cc21` [Example 4, 6-Fluoro-1,4-dihydro-1-methylamino-4-oxo-7-(1-piperazinyl)-3-quinolinecarboxylic acid], the ED50 is 6.25 mg/kg in test [1], 0.46 mg/kg in [10] and 0.32 mg/kg in test [9]. The MIC in test [2] is 1 µg/mL (≈ 3.12 µM); in [3], 0.5 µg/mL (≈ 1.56 µM); in test [5] it was 2 µg/mL (≈ 6.24 µM); in test [6], 1 µg/mL (≈ 3.12 µM); in test [7], 1 µg/mL (≈ 3.12 µM); in test [8], 0.25 µg/mL (≈ 0.78 µM).

For the compound `CCNn1cc(C(=O)O)c(=O)c2cc(F)c(Cl)cc21` [7-Chloro-1-ethylamino-6-fluoro-1,4-dihydro-4-oxo-3-quinolinecarboxylic acid], the MIC in test [2] turned out to be 3.9 µg/mL (≈ 13.7 µM); in [3], 3.9 µg/mL (≈ 13.7 µM); in test [4], 31.3 µg/mL (≈ 110 µM); in test [5], 15.6 µg/mL (≈ 54.8 µM); in test [6], 31.3 µg/mL (≈ 110 µM); in test [7], 1.95 µg/mL (≈ 6.85 µM). Moreover, the MIC in test [8] stood at 0.25 µg/mL (≈ 0.878 µM).

Turning to `CNn1cc(C(=O)O)c(=O)c2cc(F)c(N3CCN(C(C)C)CC3)cc21` [Example 10, 6-Fluoro-1,4-dihydro-1-methylamino-7-[4-(1-methylethyl)-1-piperazinyl]-4-oxo-3-quinolinecarboxylic acid], the ED50 turned out to be 50 mg/kg in test [1] (setting [11]) and 2.7 mg/kg in [9] (setting [12]). Further, the MIC in test [2] is 0.5 µg/mL (≈ 1.38 µM); in test [3], 4 µg/mL (≈ 11 µM); in test [4] it was 4 µg/mL (≈ 11 µM); in [5], 2 µg/mL (≈ 5.52 µM); in [6] it was 8 µg/mL (≈ 22.1 µM); in [7], 0.5 µg/mL (≈ 1.38 µM).

`CNn1cc(C(=O)O)c(=O)c2cc(F)c(N3CCSCC3)cc21` [Example 21, 6-Fluoro-1,4-dihydro-1-methylamino-4-oxo-7-(4-thiomorpholinyl)-3-quinolinecarboxylic acid]: the MIC was 0.5 µg/mL (≈ 1.48 µM) in [2]; 2 µg/mL (≈ 5.93 µM) in [3]; above 8 µg/mL in test [4]; 0.5 µg/mL (≈ 1.48 µM) in [5]; 4 µg/mL (≈ 11.9 µM) in test [6]; 0.5 µg/mL (≈ 1.48 µM) in test [7]. Also, the ED50 in [9] (setting [12]) is above 200 mg/kg.

For the compound `CN1CCN(c2cc3c(cc2F)c(=O)c(C(=O)O)cn3N(C)C)CC1` [Example 7, 6-Fluoro-1-dimethylamino-1,4-dihydro-7-(4-methyl-1-piperazinyl)-4-oxo-3-quinolinecarboxylic acid], the ED50 turned out to be 29 mg/kg in [1] (setting [11]) and 1.66 mg/kg in test [9] (setting [12]). Moreover, the MIC in test [2] is 2 µg/mL (≈ 5.74 µM); in test [3] it was 2 µg/mL (≈ 5.74 µM); in test [4], 31.3 µg/mL (≈ 89.8 µM); in test [6] it was 2 µg/mL (≈ 5.74 µM); in [7], 0.5 µg/mL (≈ 1.44 µM); in test [8], 0.12 µg/mL (≈ 0.344 µM).

(Values after US4499091A, “1-Amino (or substituted amino)-1,4-dihydro-4-oxo-6-fluoro-7-heterylquinoline-3-carboxylic acids and their use as antibacterial agents” (Sterling Drug Inc., priority 1983, dated 1985).)
